Key:
[1] = molecular target: T1, Recombinant ROCK2 (amino acids 5-554) (Homo sapiens, UniProt O75116); assay: ROCK inhibition assay, LANCE Ultra TR-FRET (ROCK2); assay type: biochemical; settings: 1 mM of ATP
T1 construct: ROCK2 (amino acids 5-554)

[2] = Blood-brain barrier penetration, brain-to-plasma ratio in mouse; assay type: in vivo; settings: CD-1 mouse, IV 1 mg/kg, n=3
Description: (§1) The concentrations of compounds of (1) in blood and brain were measured from plasma and brain samples taken 0.25 and 2 hours after intravenous (IV) administration of the compounds of (1) at 1 mg/kg in CD-1 mouse and Sprague-Dawley rat (n=3). After euthanizing the mouse and rat, blood samples from cardiac puncture and brain tissue were collected. Plasma or brain homogenate was vortexed for 1 min. with internal standard in Methanol/Acetonitrile (1:1, v/v), and centrifuged at 4000-4500 rpm for 15 min. at room temperature to precipitate proteins. Subsequently, the supernatant was introduced into the LC/MS/MS system. An AB Sciex API 5500 mass spectrometer system (Sciex, USA) was used for quantitative analysis. The concentrations compounds of (1) in plasma and brain sample were determined using the standard calibration curve and brain-to-plasma concentration ratio was calculated.

[3] = molecular target: T2, Recombinant ROCK1 (amino acids 1-477) (Homo sapiens, UniProt Q13464); assay: ROCK inhibition assay, LANCE Ultra TR-FRET (ROCK1); assay type: biochemical; settings: 1 mM of ATP
T2 construct: Recombinant ROCK1 (amino acids 1-477)
T2 sequence (Q13464 1-477): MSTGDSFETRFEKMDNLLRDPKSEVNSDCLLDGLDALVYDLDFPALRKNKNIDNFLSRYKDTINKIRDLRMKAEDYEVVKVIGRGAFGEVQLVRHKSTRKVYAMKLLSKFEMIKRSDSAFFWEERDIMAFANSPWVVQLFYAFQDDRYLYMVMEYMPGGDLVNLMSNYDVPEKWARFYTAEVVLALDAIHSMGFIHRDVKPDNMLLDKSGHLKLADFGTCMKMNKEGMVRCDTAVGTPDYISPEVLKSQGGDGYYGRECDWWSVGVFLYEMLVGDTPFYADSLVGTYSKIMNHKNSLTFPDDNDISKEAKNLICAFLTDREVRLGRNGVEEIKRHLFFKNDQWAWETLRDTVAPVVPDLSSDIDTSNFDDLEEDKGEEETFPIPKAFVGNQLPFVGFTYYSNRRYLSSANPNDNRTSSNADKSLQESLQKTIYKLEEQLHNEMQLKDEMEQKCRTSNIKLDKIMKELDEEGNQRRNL

[4] = Blood-brain barrier penetration, brain-to-plasma ratio in rat; assay type: in vivo; settings: Sprague-Dawley rat, IV 1 mg/kg, n=3
Description: as §1

T1 sequence (O75116 5-554): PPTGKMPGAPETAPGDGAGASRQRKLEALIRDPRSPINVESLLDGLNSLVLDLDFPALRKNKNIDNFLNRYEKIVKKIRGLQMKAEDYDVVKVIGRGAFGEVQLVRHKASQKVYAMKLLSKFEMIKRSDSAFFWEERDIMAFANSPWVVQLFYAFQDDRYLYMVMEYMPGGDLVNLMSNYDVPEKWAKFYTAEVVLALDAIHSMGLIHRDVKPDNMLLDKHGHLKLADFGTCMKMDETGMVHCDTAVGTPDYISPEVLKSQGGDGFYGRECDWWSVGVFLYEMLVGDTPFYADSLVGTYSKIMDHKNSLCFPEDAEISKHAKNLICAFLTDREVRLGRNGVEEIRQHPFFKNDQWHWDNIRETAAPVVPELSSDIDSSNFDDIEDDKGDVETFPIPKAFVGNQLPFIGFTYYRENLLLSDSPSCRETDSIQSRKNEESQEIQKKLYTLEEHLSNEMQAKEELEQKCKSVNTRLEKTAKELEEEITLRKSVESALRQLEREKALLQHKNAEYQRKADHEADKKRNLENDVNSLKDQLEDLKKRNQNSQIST

SMILES	IC50 [1] [nM]	Kp at 0.25 h [2]	Kp at 2 h [2]	IC50 [3] [nM]	Kp at 0.25 h [4]	Kp at 2 h [4]
CCN(CC)CCn1cc(C(=O)C2COc3ccc(OC)cc3C2)c2ccc(-c3cn[nH]c3Cl)cc21 (stereo not shown) [Compound 3-17]	21 to 200	0.73	0.92	> 501	1.05	0.98
CN1CC[C@@H]1Cn1cc(C(=O)C2COc3ccc(Cl)cc3C2)c2ccc(-c3cn[nH]c3Cl)cc21 (stereo partly shown) [Compound 1-55]	< 20	0.67	0.8	> 501	0.4	0.59
CN1CC[C@H]1Cn1nc(C(=O)C2COc3ccc(F)cc3C2)c2ccc(-c3c[nH]nc3F)cc21 (stereo partly shown) [Compound 5-56]	21 to 200	7.32	10.2	> 501	12.4	20.2
CNCCn1cc(C(=O)C2COc3ccc(OC)cc3C2)c2ccc(-c3cn[nH]c3F)cc21 (stereo not shown) [Compound 3-24]	21 to 200	0.96	0.54	> 501	1.37	1.38
COc1ccc2c(c1)CC(C(=O)c1cn(C[C@H]3CCN3)c3cc(-c4cn[nH]c4Cl)ccc13)CO2 (stereo partly shown) [Compound 1-35]	< 20	–	–	21 to 200	–	–
COc1[nH]ncc1-c1ccc2c(C(=O)[C@@H]3COc4ccc(F)cc4C3)cn(CCN(C)C)c2c1 [Compound 5-38]	< 20	–	–	> 501	–	–
CN(C)CCn1cc(C(=O)C2COc3ccc(Cl)cc3C2)c2ccc(-c3c[nH]nc3Cl)nc21 (stereo not shown) [Compound 1-9]	21 to 200	–	–	201 to 500	–	–
COc1n[nH]cc1-c1ccc2c(C(=O)C3COc4ccc(Cl)cc4C3)cn(C[C@@H](C)N)c2c1 (stereo partly shown) [Compound 2-6]	< 20	–	–	21 to 200	–	–
COc1[nH]ncc1-c1ccc2c(C(=O)C3COc4ccc(F)cc4C3)cn(CCN(C)C)c2c1 (stereo not shown) [Compound 5-37]	< 20	–	–	> 501	–	–
COc1ccc2c(c1)C[C@H](C(=O)c1cn(CCN(CCF)CCF)c3cc(-c4c[nH]nc4Cl)ccc13)CO2 [Compound 5-15]	21 to 200	–	–	> 501	–	–
COc1[nH]ncc1-c1ccc2c(C(=O)C3COc4ccc(Cl)cc4C3)cn(CC3CN(C)C3)c2c1 (stereo not shown) [Compound 1-44]	< 20	–	–	> 501	–	–
CN(C)CCn1cc(C(=O)C2COc3ccccc3O2)c2ccc(-c3c[nH]nc3Cl)cc21 (stereo not shown) [Compound 5-18]	201 to 500	–	–	201 to 500	–	–
CN(C)CCn1cc(C(=O)C2COc3ccc(Cl)cc3C2)c2cnc(-c3c[nH]nc3Cl)cc21 (stereo not shown) [Compound 1-11]	> 501	–	–	> 501	–	–
COc1[nH]ncc1-c1cc2c(cn1)c(C(=O)C1COc3ccc(Cl)cc3C1)cn2CCN(C)C (stereo not shown) [Compound 1-1, (6-chlorochroman-3-yl)-[1-[2-(dimethylamino)ethyl]-6-(3-methoxy-1H-pyrazol-4-yl)pyrrolo[3,2-c]pyridin-3-yl]methanone]	21 to 200	–	–	> 501	–	–
COc1n[nH]cc1-c1ccc2c(C(=O)C3COc4ccc(Cl)cc4C3)cn(CCN3CCC3)c2c1 (stereo not shown) [Compound 3-4, [1-[2-(azetidin-1-yl)ethyl]-6-(3-methoxy-1H-pyrazol-4-yl)indol-3-yl]-(6-chlorochroman-3-yl)methanone]	201 to 500	–	–	> 501	–	–

Reference: US20240360139A1, “BLOOD BRAIN BARRIER PENETRATING SELECTIVE INHIBITORS OF ROCK2 PROTEIN KINASES AND USES THEREOF” (GENOSCO Inc., priority 2023, published 2024)
